US6776987B1, “Enhancement of cardiac chronotropy” (Massachusetts Institute of Technology, priority 1998, dated 2004)

Legend:
[1] = tested on: cultured fetal murine myocardial cells; experiment: In vitro myocyte contractile recruitment: percentage of beating and fast beating GFP-positive transfected myocytes; assay type: cell-based, B6D2F1 fetal mice
Protocol: (§1) Cultured fetal murine myocardial cells were prepared as previously described (Iwaki, K. et al., J Biol Chem., 265(23):13809-17 (1990); Sen, A. et al., J Clin Invest., 82 (4):1333-8 (1988)). Myocytes from ventricles of 17.5 day old B6D2F1 fetal mice were fragmented with a straight-edge razor. The tissue was then digested with 0.5 mg/ml collagenase II (Worthington Biochemical Corp., Freehold, N.J.) and 1.0 mg/ml pancreatin (Sigma Chemical Co., St. Louis, Mo.) in ADS buffer (116 mM NaCl, 20 mM HEPES, 1 MM NaH2PO4, 5.5 mM glucose, 5.4 mM KCl, 0.8 mM MgSO4, pH 7.4) at 37° C. for 10 min. The cells were centrifuged at 700 g at 4° C. for 5 min. The cells were then plated onto 48-well plates (Falcon Labware, Cockeysville, Md.) precoated with 1% gelatin or onto 25 mm^2 square coverslips precoated with 1% gelatin and 20 μg/ml laminin at a density of 10^5 cell/ml in Dulbecco's modified Eagle's media (DMEM) supplemented with 10% fetal calf serum (FCS), and Streptomycin 100 μg/ml, and Penicillin (500 μg/mL). The myocytes were grown at 37° C. in 5% CO2.
The transfection of myocytes with lipofection was optimized. Myocytes were plated as described above and grown overnight. The β2AR, LacZ, or GFP expression circular vectors (1:2.5 M/M; 0.125 μg total DNA/well) were incubated with Lipofectamine (Life Technologies) (12.5 μl/well) in Opti-Mem I (Life Technologies) reduced serum medium(12.5 μl/well) for 30 min at 25° C. After incubation, DMEM (100 μl/well) was added. The myocyte cultures were washed with PBS twice, the Lipofectamine-DNA mixtures were added, and the cultures incubated at 37° C. After 4 hours, an equal volume of DMEM with 20% FCS was added to the cultures. The cultures were incubated overnight and the medium was changed to DMEM with 10% FCS.
The myocytes were assayed 48 hr after transfection. […]
The percentage of beating myocytes was determined for cells transfected with either the β2AR expression vector or the control construct. […] In addition, the percentage of myocytes that were beating faster than 60 beats per minute (bpm) was determined in identical fashion. […]

[2] = tested on: cultured fetal murine myocardial cells; experiment: Average rate of myocyte contraction by video edge motion detector; assay type: cell-based, B6D2F1 fetal mice; conditions: control transfected cells in the presence of 10^-3 M isoproterenol
Protocol: as §1
The transfection of myocytes with lipofection was optimized. […]
The average rate of myocyte contraction was quantitated by motion detector under both baseline and 10^−3 M isoproterenol. […] The statistical significance of the increased rate of myocyte contraction was determined by Student's t-Test analysis.

CC(C)NCC(O)c1ccc(O)c(O)c1 (stereo not shown) [isoproterenol]
percentage of myocytes contracting ([1]; control LacZ transfected myocytes, increasing concentrations of isoproterenol (0-10^-3 M)): 69% | percentage of myocytes with chronotropic rates greater than 60 bpm (fast beating cells) ([1]; control transfected cells at 10^-3 M isoproterenol): 54% | effect on number of contracting myocytes ([1]; β2AR transfected myocytes, addition of isoproterenol): failed to increase | average rate of contraction [2]: 75+/−18 bpm
